Measurements reported in patent US7547513B2, “Mutants of deoxycytidine kinase having extended enzymatic activity” (priority 2001, dated 2009).
Values after ≈ are worked out from the molar mass of the structure shown.

Key:
[1] = test system: Escherichia coli β7334 Δdeo tdk cdd::Tn10 pSUTrc (dck allele: none); assay type: cell-based; conditions: strain β7334, dck allele none; 18 h 37° C., MS medium + IPTG
Procedure: (§1) The culture was then diluted 100 times in the same medium supplemented with IPTG and distributed on 96-well microplates in a final volume of 100 μl in a series of dilutions from to 2 to 2 nucleotide analogues. Each analogue was tested twice. After incubation for 18 hours at 37° C. with stirring, the MIC was determined as corresponding to the lowest analogue concentration for which no turbidity was detectable.
(§2) The toxicity of nucleoside analogues, deviating either by the sugar or by the base, was evaluated in strains of genotype Δdeo tdk cdd expressing on a plasmid the different dckH alleles, wild-type allele, D133E, R104Q and double mutant.
(§3) The minimum inhibitory concentrations, expressed in microM, were determined as indicated in the section Materials and Methods.

[2] = test system: Escherichia coli β7338 Δdeo tdk cdd::Tn10 pSUDCK4 (dck:D133E-R104Q); assay type: cell-based; conditions: strain β7338, dck allele D133E R104Q; 18 h 37° C., MS medium + IPTG
Procedure: as §1, §2, §3

[3] = test system: Escherichia coli β7336 Δdeo tdk cdd::Tn10 pSUDCK2 (dck:D133E); assay type: cell-based; conditions: strain β7336, dck allele D133E; 18 h 37° C., MS medium + IPTG
Procedure: (§4) The culture was then diluted 100 times in the same medium supplemented with IPTG and distributed on 96-well microplates in a final volume of 100 μl in a series of dilutions from to 2 to 2 nucleotide analogues. Each analogue was tested twice.
as §2, §3

[4] = test system: Escherichia coli β7337 Δdeo tdk cdd::Tn10 pSUDCK3 (dck:R104Q); assay type: cell-based; conditions: for minimum inhibitory concentration (MIC): strain β7337, dck allele R104Q, 18 h 37° C., MS medium + IPTG
Procedure: as §4, §2, §3

[5] = test system: Escherichia coli β7339 Δdeo tdk cdd::Tn10 (dckH none, amkG wt); assay: microbe, parasite or virus in culture; assay type: cell-based; conditions: strain β7339, dckH none, amkG wt
Procedure: as §1
(§5) We jointly expressed, within the genetic context Δdeo tdk cdd each of the four alleles of dckH with each of the two wt and T39A alleles of amkG, and tested the toxicity of the different nucleoside analogues already tested previously (Table 4 below).
as §3

[6] = test system: Escherichia coli β7340 Δdeo tdk cdd::Tn10 (dckH wt, amkG wt); assay: microbe, parasite or virus in culture; assay type: cell-based; conditions: strain β7340, dckH wt, amkG wt
Procedure: as §1, §5, §3

[7] = test system: Escherichia coli β7341 Δdeo tdk cdd::Tn10 (dckH D133E, amkG wt); assay: microbe, parasite or virus in culture; assay type: cell-based; conditions: strain β7341, dckH D133E, amkG wt
Procedure: as §1, §5, §3

[8] = test system: Escherichia coli β7342 Δdeo tdk cdd::Tn10 (dckH R104Q, amkG wt); assay: microbe, parasite or virus in culture; assay type: cell-based; conditions: strain β7342, dckH R104Q, amkG wt
Procedure: as §1, §5, §3

[9] = test system: Escherichia coli β7343 Δdeo tdk cdd::Tn10 (dckH D133E R104Q, amkG wt); assay: microbe, parasite or virus in culture; assay type: cell-based; conditions: strain β7343, dckH D133E R104Q, amkG wt
Procedure: as §1, §5, §3

[10] = test system: Escherichia coli β7344 Δdeo tdk cdd::Tn10 (dckH none, amkG T39A); assay: microbe, parasite or virus in culture; assay type: cell-based; conditions: strain β7344, dckH none, amkG T39A
Procedure: as §1, §5, §3

[11] = test system: Escherichia coli β7345 Δdeo tdk cdd::Tn10 (dckH wt, amkG T39A); assay: microbe, parasite or virus in culture; assay type: cell-based; conditions: strain β7345, dckH wt, amkG T39A
Procedure: as §1, §5, §3

[12] = test system: Escherichia coli β7346 Δdeo tdk cdd::Tn10 (dckH D133E, amkG T39A); assay: microbe, parasite or virus in culture; assay type: cell-based; conditions: strain β7346, dckH D133E, amkG T39A
Procedure: as §1, §5, §3

[13] = test system: Escherichia coli β7347 Δdeo tdk cdd::Tn10 (dckH R104Q, amkG T39A); assay: microbe, parasite or virus in culture; assay type: cell-based; conditions: strain β7347, dckH R104Q, amkG T39A
Procedure: as §1, §5, §3

[14] = test system: Escherichia coli β7348 Δdeo tdk cdd::Tn10 (dckH D133E R104Q, amkG T39A); assay: microbe, parasite or virus in culture; assay type: cell-based; conditions: strain β7348, dckH D133E R104Q, amkG T39A
Procedure: as §1, §5, §3

[15] = test system: Escherichia coli β7335 Δdeo tdk cdd::Tn10 pSUDCK1 (dck wt); assay type: cell-based; conditions: strain β7335, dck allele wt; 18 h 37° C., MS medium + IPTG
Procedure: as §4, §2, §3

[16] = test system: bacteria of genotype Δdeo tdk p::dckH+ (β7134 cells); assay: Selection of the DCK mutants in vivo (mutagenesis of dck gene by promutagenic nucleosides); assay type: cell-based, Escherichia coli; conditions: for frequency of colonies on solid rich medium with trimethoprim and thymidine after exposure: no colony in the absence of promutagenic nucleoside
Procedure: Selection of the DCK mutants in vivo: a 12-hour culture of the β7134 cells in MS medium supplemented with 50 mg/l of carbenicillin was diluted 100 times in the same medium and cultured with aeration until turbidity of 0.100 (600 nm) was reached. The culture was then diluted 25 times in the same medium with or without IPTG and supplemented with variable concentrations (5 to 30 μM) of the promutagenic nucleoside analogues disoG and disoA then cultured with aeration for 18 hours. The cells were rinsed then plated on MH dishes supplemented with trimethoprim, thymidine and IPTG. Colonies appeared after incubation for 36 hours at 37° C. No colony was obtained in the absence of nucleoside analogue.
We took advantage of the conditional mutating property of DCK in the presence of promutagenic nucleoside analogues in order to subject its own dck gene to an episode of mutagenesis in vivo. Thus, bacteria of genotype Δdeo tdk p::dckH+ were exposed either to 2′-deoxy-iso-adenosine (disoA) or to 2′ deoxy-iso-guanosine (disoG), then incubated on solid rich medium in the presence of trimethoprim and thymidine. Colonies appeared following the administration of the two compounds at a frequency of the order of 10^−8. No colony survived in the absence of promutagenic nucleoside.
These alleles are designated dckH*. A plasmid combining the two mutations in the same allele, dckH**, was constructed and introduced into the strain β7117 of genotype Δdeo tdk. This allowed the complementation of the tdk mutation, thus also expressing a thymidine kinase activity. The different alleles selected are itemized in Table 2 below.

[17] = sequenced mutant plasmids obtained independently

Compound: NNc1ccn([C@H]2C[C@H](O)[C@@H](CO)O2)c(=O)n1 [amino-dC, N4-amino-2′-deoxycitidine]
- minimum inhibitory concentration (MIC) [1]: > (no toxicity could be detected at the highest analogue concentration, 1.28 mM)
- minimum inhibitory concentration (MIC) [2]: 20 µM
- minimum inhibitory concentration (MIC) [3]: 20 µM
- minimum inhibitory concentration (MIC) [4]: 2.5 µM
- minimum inhibitory concentration (MIC) [5]: > (no toxicity could be detected at the highest analogue concentration, 1280 microM)
- minimum inhibitory concentration (MIC) [6]: 80 µM (≈ 19.4 µg/mL)
- minimum inhibitory concentration (MIC) [7]: > (no toxicity could be detected at the highest analogue concentration, 1280 microM)
- minimum inhibitory concentration (MIC) [8]: ≦1.25 microM
- minimum inhibitory concentration (MIC) [9]: 80 µM (≈ 19.4 µg/mL)
- minimum inhibitory concentration (MIC) [10]: > (no toxicity could be detected at the highest analogue concentration, 1280 microM)
- minimum inhibitory concentration (MIC) [11]: > (no toxicity could be detected at the highest analogue concentration, 1280 microM)
- minimum inhibitory concentration (MIC) [12]: 640 µM (≈ 155 µg/mL)
- minimum inhibitory concentration (MIC) [13]: 5 µM (≈ 1.21 µg/mL)
- minimum inhibitory concentration (MIC) [14]: 320 µM (≈ 77.5 µg/mL)

Compound: Nc1ccn([C@@H]2O[C@H](CO)[C@@H](O)[C@@H]2O)c(=O)n1 [araC, arabinocytidine]
- minimum inhibitory concentration (MIC) [1]: > (no toxicity could be detected at the highest analogue concentration, 1.28 mM)
- minimum inhibitory concentration (MIC) [2]: 320 µM
- minimum inhibitory concentration (MIC) [15]: 160 µM
- minimum inhibitory concentration (MIC) [3]: 20 µM
- minimum inhibitory concentration (MIC) [4]: 20 µM

Compound: Nc1ncnc2c1ncn2[C@H]1CC[C@@H](CO)O1 [ddA]
- minimum inhibitory concentration (MIC) [1]: 80 µM
- minimum inhibitory concentration (MIC) [2]: 80 µM
- minimum inhibitory concentration (MIC) [15]: 80 µM
- minimum inhibitory concentration (MIC) [3]: 80 µM
- minimum inhibitory concentration (MIC) [4]: 80 µM

Compound: O=c1[nH]cnc2c1ncn2[C@H]1CC[C@@H](CO)O1 [ddI]
- minimum inhibitory concentration (MIC) [1]: 80 µM
- minimum inhibitory concentration (MIC) [2]: 40 µM
- minimum inhibitory concentration (MIC) [15]: 40 µM
- minimum inhibitory concentration (MIC) [3]: 40 µM
- minimum inhibitory concentration (MIC) [4]: 20 µM

Compound: Nc1ncc2ncn([C@H]3C[C@H](O)[C@@H](CO)O3)c2n1 [disoA, 2-amino-9-(2′-deoxy-β-D-ribofuranosyl)purine]
- minimum inhibitory concentration (MIC) [1]: > (no toxicity could be detected at the highest analogue concentration, 1.28 mM)
- minimum inhibitory concentration (MIC) [2]: > (no toxicity could be detected at the highest analogue concentration, 1.28 mM)
- minimum inhibitory concentration (MIC) [3]: 10 µM
- effect of the mutation on toxicity ([4]; mutation R104Q): no effect
- minimum inhibitory concentration (MIC) [5]: > (no toxicity could be detected at the highest analogue concentration, 1280 microM)
- minimum inhibitory concentration (MIC) [6]: > (no toxicity could be detected at the highest analogue concentration, 1280 microM)
- minimum inhibitory concentration (MIC) [7]: > (no toxicity could be detected at the highest analogue concentration, 1280 microM)
- minimum inhibitory concentration (MIC) [8]: > (no toxicity could be detected at the highest analogue concentration, 1280 microM)
- minimum inhibitory concentration (MIC) [9]: 1280 µM (≈ 322 µg/mL)
- minimum inhibitory concentration (MIC) [10]: > (no toxicity could be detected at the highest analogue concentration, 1280 microM)
- minimum inhibitory concentration (MIC) [11]: > (no toxicity could be detected at the highest analogue concentration, 1280 microM)
- minimum inhibitory concentration (MIC) [12]: 10 µM (≈ 2.51 µg/mL)
- minimum inhibitory concentration (MIC) [13]: > (no toxicity could be detected at the highest analogue concentration, 1280 microM)
- minimum inhibitory concentration (MIC) [14]: > (no toxicity could be detected at the highest analogue concentration, 1280 microM)
- frequency of colonies on solid rich medium with trimethoprim and thymidine after exposure [16]: ~10^−8
- Frequency of mutation detected C → A, codon 133 GAC, Asp → Glu [16, 17]: 1/3
- Frequency of mutation detected C → G, codon 133 GAC, Asp → Glu [16, 17]: 1/3
- Frequency of mutation detected G → A, codon 133 CGA, Arg → Glu [16, 17]: 1/3

Compound: Nc1nc(O)nc2c1ncn2[C@H]1C[C@H](O)[C@@H](CO)O1 [disoG, 2-hydroxy-6-amino-9-(2′-deoxy-β-D-ribofuranosyl)purine]
- minimum inhibitory concentration (MIC) [1]: > (no toxicity could be detected at the highest analogue concentration, 1.28 mM)
- minimum inhibitory concentration (MIC) [2]: > (no toxicity could be detected at the highest analogue concentration, 1.28 mM)
- minimum inhibitory concentration (MIC) [5]: > (no toxicity could be detected at the highest analogue concentration, 1280 microM)
- minimum inhibitory concentration (MIC) [6]: > (no toxicity could be detected at the highest analogue concentration, 1280 microM)
- minimum inhibitory concentration (MIC) [7]: > (no toxicity could be detected at the highest analogue concentration, 1280 microM)
- minimum inhibitory concentration (MIC) [8]: > (no toxicity could be detected at the highest analogue concentration, 1280 microM)
- minimum inhibitory concentration (MIC) [9]: > (no toxicity could be detected at the highest analogue concentration, 1280 microM)
- minimum inhibitory concentration (MIC) [10]: > (no toxicity could be detected at the highest analogue concentration, 1280 microM)
- minimum inhibitory concentration (MIC) [11]: > (no toxicity could be detected at the highest analogue concentration, 1280 microM)
- minimum inhibitory concentration (MIC) [12]: > (no toxicity could be detected at the highest analogue concentration, 1280 microM)
- minimum inhibitory concentration (MIC) [13]: > (no toxicity could be detected at the highest analogue concentration, 1280 microM)
- minimum inhibitory concentration (MIC) [14]: > (no toxicity could be detected at the highest analogue concentration, 1280 microM)
- frequency of colonies on solid rich medium with trimethoprim and thymidine after exposure [16]: ~10^−8
- Frequency of mutation detected C → A, codon 133 GAC, Asp → Glu [16, 17]: 4/4
